According to US10954188B2, “Isotope-enriched 3-amino-1-propanesulfonic acid derivatives and uses thereof” (RISEN (SUZHOU) PHARMA TECH CO., LTD., priority 2017, dated 2021):
“Also recorded” adds a separate entry of the source. Structures can show the parent of a compound that is named as a salt.

Columns and labels:
[1] = Compound stability in whole mouse blood; type: in vitro ADME; details: fresh mouse blood, initial concentration 1.44 μM, 37° C., test (parent) compound at 4 h
Method: Compounds were also evaluated for stability in whole mouse blood. A sample of test compound in fresh mouse blood (at a concentration of 1.44 μM) was incubated at 37° C. for 4 h. An aliquot of the sample was withdrawn, at time 5 min. and time 4 h, for concentration analysis on a LC-MS/MS instrument after converting the blood sample to an analytical sample employing standard sample preparation procedures. The detailed recovery of the compound was not fully evaluated and optimized. The sample was analyzed for the parent compound and the therapeutic compound.

[2] = Compound stability in simulated gastric fluid (SGF); type: in vitro ADME; details: 400 μg/mL, 37° C., percentage of initial concentration, LC-MS/MS
Method: Compounds were evaluated for stability in simulated gastric fluid (SGF). A solution of a compound in SGF (400 μg/mL) was incubated at 37° C. for 4 h. An aliquot of the sample was withdrawn, at time 0 and time 4 h, for concentration analysis on a LC-MS/MS instrument. The initial concentration (at time 0) of a compound was considered as 1, and the remaining concentration of the compound at 4-h time point was calculated and expressed as the percentage of the initial concentration.

[3] = Pharmacokinetic study in ICR mice, oral (FIGS. 1 and 2); type: in vivo; details: for concentration of metabolite (2-carboxy-1-ethanesulfonic acid) in plasma compared to 3APS (of natural abundance): 0.72 mmol/kg, 2 h; for drug metabolism compared to 3APS (of natural abundance) / plasma drug exposure compared to 3APS (of natural abundance): mole-equivalent dose (0.72 mmol/kg)
Method: A compound according to the invention is dissolved in water at a concentration determined by the desired dose and dosing volume for the specific animal to which the compound is to be administered. A calculated volume of dosing solution is administered to the animal (PO, SQ, IP, or IV). A blood sample is collected following administration of the compound at specific time points (such as 10 min., 30 min., 1 h, 2 h, 4 h, 8 h, and 12 h). The blood sample is converted to a plasma sample using standard techniques. A brain sample can also be collected after complete perfusion. The plasma and/or brain samples are analyzed to determine the concentration of relevant compounds (including e.g., administered compounds, therapeutic compounds (e.g., drugs) and metabolites).
(§1) Forty-two male ICR mice, body-weight of 19 to 21 g, are randomized into 7 groups. The animals are administered with an aqueous solution of a test compound by oral gavage. Blood samples are collected into tubes pre-loaded with heparin anticoagulating agent, at time 0.167, 0.5, 1, 2, 4, 8, and 12 h after administration. Blood samples are centrifuged, and plasma samples are isolated for analysis of the test compound (including compounds administered, metabolites, and/or prodrugs). A 400 μL blood sample is collected from each animal, and then the animal is put to sleep with barbiturate anesthesia; perfusion is performed (through the main vein of the heart) with saline at a rate of 5 mL/min., for 6 min. The brain is collected and kept at −40° C. until the sample is analyzed. The protein in the plasma is precipitated and the analytical sample is analyzed on an AB4000-Q-Trap UPLC-MS/MS instrument.

[4] = Pharmacokinetic study in C57Bl6 mice; type: in vivo; parameters: AUC(0-t): concentration or dose not given beside the values; details: mouse, oral gavage, plasma, prodrug; for AUC(0-t): read-out: Prodrug AUCt; for half-life: read-out: Prodrug T1/2 (converted)
Method: as §1
Pharmacokinetic studies were performed in C57B16 mice. The experiments were done using the same protocol described in Example 20. For each compound, 42 animals were used (6 animals per time point, and 7 time points distributed at 10 min, 0.5, 1, 2, 4, 8 and 12 h).

[2H]C([2H])(N)CCS(=O)(=O)O [Compound 1, 3-amino-3,3-dideuterium-1-propanesulfonic acid]
Compound conc. (μM) at 4 h [1]: 0.98 µM
Remaining (%) at 4 h [2]: (100) %
concentration of metabolite (2-carboxy-1-ethanesulfonic acid) in plasma compared to 3APS (of natural abundance) [3]: much lower
drug metabolism compared to 3APS (of natural abundance) [3]: delayed drug metabolism; also recorded: delayed metabolic profile
plasma drug exposure compared to 3APS (of natural abundance) [3]: improved plasma drug exposure significantly

[2H]C([2H])(CCS(=O)(=O)O)NC(=O)[C@H](C)N [Compound 2, 3-((L-alanyl)amino)-3,3-dideuterium-1-propanesulfonic acid]
Compound conc. (μM) at 4 h [1]: 0.18 µM
Cmax [4]: 472 ng/mL
AUC(0-t) [4]: 348 ng·h/mL
half-life [4]: 36 min

[2H]C([2H])(CCS(=O)(=O)O)NC(=O)[C@@H](N)CO [Compound 3, 3-(L-serylamino)-3,3,-dideuterium-1-propanesulfonic acid]
Cmax [4]: 22300 ng/mL
AUC(0-t) [4]: 44700 ng·h/mL
half-life [4]: 114 min

[2H]C([2H])(CCS(=O)(=O)O)NC(=O)[C@@H](N)C(C)C [Compound 4, 3-((L-valyl)amino)-3,3-dideuterium-1-propanesulfonic acid]
Compound conc. (μM) at 4 h [1]: 0.74 µM
Remaining (%) at 4 h [2]: 107%
Cmax [4]: 39500 ng/mL
AUC(0-t) [4]: 38000 ng·h/mL
half-life [4]: 90 min
concentration of metabolite (2-carboxy-1-ethanesulfonic acid) in plasma compared to 3APS (of natural abundance) [3]: much lower
drug metabolism compared to 3APS (of natural abundance) [3]: delayed drug metabolism
plasma drug exposure compared to 3APS (of natural abundance) [3]: improved plasma drug exposure significantly; also recorded: even greater improvement of drug exposure
conversion of prodrug to compound 1 in the subject ([3]; plasma): converted easily to 1

[2H]C([2H])(CCS(=O)(=O)O)NC(=O)[C@@H](N)Cc1ccccc1 [Compound 5, 3-((L-phenylalanyl)amino)-3,3-dideuterium-1-propanesulfonic acid]
Compound conc. (μM) at 4 h [1]: 0.03 µM
Remaining (%) at 4 h [2]: 99%
Cmax [4]: 1090 ng/mL
AUC(0-t) [4]: 782 ng·h/mL
half-life [4]: 24 min

[2H]C([2H])(CCS(=O)(=O)O)NC(=O)[C@@H](N)Cc1c[nH]cn1 [Compound 6, 3-((L-histidyl)amino)-3,3-dideuterium-1-propanesulfonic acid hydrochloride]
Cmax [4]: 9920 ng/mL
AUC(0-t) [4]: 16600 ng·h/mL
half-life [4]: 84 min

C[C@H](N)C(=[18O])NCCCS(=O)(=O)O [Compound 13, 3-((^18O-L-alanyl)amino)-1-propanesulfonic acid]
Cmax [4]: 672 ng/mL
AUC(0-t) [4]: 1830 ng·h/mL
half-life [4]: 30 min

CC(C)[C@H](N)C(=[18O])NCCCS(=O)(=O)O [Compound 15, 3-((^18O-L-valyl)amino)-1-propanesulfonic acid]
Compound conc. (μM) at 4 h [1]: 0.78 µM
Remaining (%) at 4 h [2]: 104%

N[C@@H](Cc1ccccc1)C(=[18O])NCCCS(=O)(=O)O [Compound 16]
Compound conc. (μM) at 4 h [1]: 0.74 µM
Remaining (%) at 4 h [2]: 96%
Cmax [4]: 3840 ng/mL
AUC(0-t) [4]: 11900 ng·h/mL
half-life [4]: 90 min

N[C@@H](Cc1c[nH]cn1)C(=[18O])NCCCS(=O)(=O)O [Compound 17, 3-((^18O-L-histidyl)amino)-1-propanesulfonic acid hydrobromide]
Compound conc. (μM) at 4 h [1]: 1.20 µM
Remaining (%) at 4 h [2]: 101%
Cmax [4]: 19000 ng/mL
AUC(0-t) [4]: 14200 ng·h/mL
half-life [4]: 66 min

[2H]C([2H])(CCS(=O)(=O)O)NC(=[18O])[C@@H](N)C(C)C [Compound 29, 3-((^18O-L-valyl)amino)-3,3-dideuterium-1-propanesulfonic acid]
Compound conc. (μM) at 4 h [1]: 0.80 µM
